# “And” between values parts separate entries of the source, which are not always exact repeats. Identical values can stand only once.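 Briefly, cells in 96-well plates were exposed to five compound concentrations for 48 h, and endpoints were estimated by linear interpolation. Abbreviation: GI50, concentration required for 50% inhibition of growth. TGI: concentration producing complete growth inhibition.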
# Legend:
# Assay in all cases: NCI anticancer screen, dose series, 48 h
# HT29 colon = system: HT29 colon
# HS 578T breast = system: HS 578T breast
# DU-145 prostate = system: DU-145 prostate
# UACC-62 melanoma = system: UACC-62 melanoma
# M14 melanoma = system: M14 melanoma
# NCI-H226 lung = system: NCI-H226 lung
# NCI-H460 lung = system: NCI-H460 lung
# K-562 leukemia = system: K-562 leukemia
# HL-60(TB) leukemia = system: HL-60(TB) leukemia
# SK-MEL-5 melanoma = system: SK-MEL-5 melanoma
SMILES,GI50 (HT29 colon),TGI (HT29 colon),GI50 (HS 578T breast),TGI (HS 578T breast),GI50 (DU-145 prostate),TGI (DU-145 prostate),GI50 (UACC-62 melanoma),TGI (UACC-62 melanoma),GI50 (M14 melanoma),TGI (M14 melanoma),GI50 (NCI-H226 lung),TGI (NCI-H226 lung),GI50 (NCI-H460 lung),TGI (NCI-H460 lung),GI50 (K-562 leukemia),TGI (K-562 leukemia),GI50 (HL-60(TB) leukemia),TGI (HL-60(TB) leukemia),GI50 (SK-MEL-5 melanoma),TGI (SK-MEL-5 melanoma)
CCCCCCCCCCCCCCCC[N+](C)(C)C,0.0658 µM and 0.516 µM,1.03 µM and 1.97 µM,0.269 µM and 1.82 µM,0.984 µM and 5.46 µM,0.233 µM and 1.4 µM,0.665 µM and 2.91 µM,0.258 µM and 1.43 µM,1.16 µM and 3.38 µM,1.17 µM,2.86 µM,1.13 µM,3.07 µM,0.204 µM and 1.24 µM,0.412 µM and 2.81 µM,0.163 µM and 1.17 µM,1.1 µM and 2.83 µM,0.148 µM and 0.371 µM,0.336 µM and 1.81 µM,1.56 µM,2.95 µM
O=c1cc(-c2ccccc2)oc2cc(OCc3cn(Cc4ccc(F)cc4)nn3)cc(O)c12,> 100 µM,> 100 µM,6.26 µM,> 100 µM,> 100 µM,> 100 µM,,,> 100 µM,> 100 µM,3.51 µM,> 100 µM,,,> 100 µM,> 100 µM,> 100 µM,> 100 µM,> 100 µM,> 100 µM
Cc1cc2cc(Oc3ccnc(Nc4cccc(CS(=O)(=O)NCCN(C)C)c4)n3)ccc2[nH]1,2.96 µM,10.6 µM,3.17 µM,29.5 µM,9.86 µM,21.6 µM,3.85 µM,14.4 µM,,,7.25 µM,22.1 µM,4.74 µM,18.8 µM,,,2.24 µM,6.17 µM,1.86 µM,3.5 µM
CC(C)NCCCNC1=C(Cl)C(=O)c2ccccc2C1=O,2.5 µM,5.12 µM,2.93 µM,9.02 µM,1.98 µM,3.49 µM,2.1 µM,4.91 µM,1.86 µM,3.49 µM,12.8 µM,27.6 µM,3.96 µM,16.4 µM,2.05 µM,4.92 µM,2.2 µM,5.03 µM,1.54 µM,2.88 µM
COc1ccccc1NC(=O)N/C(N)=N/c1nc2ccccc2s1,0.0389 µM,> 100 µM,0.0695 µM,> 100 µM,0.159 µM,> 100 µM,0.0647 µM,> 100 µM,0.0788 µM,> 100 µM,0.949 µM,> 100 µM,0.115 µM,> 100 µM,0.0351 µM,> 100 µM,0.0827 µM,0.436 µM,0.201 µM,> 100 µM
COc1ccc(OC)c(-c2cn3nc(-c4c[nH]c5ccc(Br)cc45)sc3n2)c1,2.28 µM,4.75 µM,2.87 µM,14.5 µM,2.8 µM,7.71 µM,3.15 µM,13.2 µM,2.1 µM,4.75 µM,10.3 µM,39.8 µM,2.04 µM,4.17 µM,,,9.21 µM,> 100 µM,3.86 µM,15.2 µM
CCN(CCc1ccc(F)cc1)c1ccc(CO)c(Cl)c1,11.3 µM,27.3 µM,11.5 µM,32.4 µM,14.4 µM,29.2 µM,1.32 µM,8.41 µM,13.8 µM,28.7 µM,0.199 µM,0.637 µM,6.3 µM,21.6 µM,4.21 µM,25.7 µM,9.01 µM,30.3 µM,13 µM,25.9 µM
COc1cc(/C=C\c2cc(/C=C\c3ccc(O)c(OC)c3)n(C(=O)Nc3ccc(C(F)(F)F)cc3)n2)ccc1O,2.02 µM,4.13 µM,5.1 µM,60.6 µM,3.67 µM,13 µM,2.02 µM,4.76 µM,1.94 µM,4.08 µM,7.29 µM,27.6 µM,3.22 µM,9.95 µM,2.53 µM,> 100 µM,1.98 µM,6.45 µM,2.27 µM,6.89 µM
N#C/C(=C/c1cccs1)c1cccs1,> 100 µM,> 100 µM,99.3 µM,> 100 µM,> 100 µM,> 100 µM,> 100 µM,> 100 µM,,,> 100 µM,> 100 µM,> 100 µM,> 100 µM,> 100 µM,> 100 µM,> 100 µM,> 100 µM,> 100 µM,> 100 µM

# From PubChem BioAssay (NCI)
